# Results published in US9232796B2, “Herbicidal compositions comprising 4-amino-3-chloro-5-fluoro-6-(4-chloro-2-fluoro-3-methoxyphenyl) pyridine-2-carboxylic acid or a derivative thereof and acetyl-CoA carboxylase (ACCase) inhibitors” (DOW AGROSCIENCES LLC, priority 2012, dated 2016).
# Key:
# [1] = tested on: SCPMU; experiment: Example V post-emergence field trials in direct-seeded rice; assay type: in vivo, Schoenoplectus mucronatus; conditions: foliar, field trial Italy
# Protocol: Multiple field trials were conducted under commercial grower field conditions in Tolima, Colombia; Thessaloniki, Greece; Bianze and Copiano, Italy; and Humphrey, Ark., USA. Trials sites were located in commercially grown fields of direct-seeded rice (Oryza sativa) using standard herbicide small plot research methodology. Plots varied from 2 to 3 meter (m)×5 to 8 m (width×length) with 4 replicates per treatment. The rice crop was grown using normal cultural practices for fertilization, seeding, watering, flooding and maintenance to ensure good growth of the crop and the weeds.
# All treatments in the field trials were applied using a backpack compressed air/gas sprayer with flat fan nozzles (80° or 110°) calibrated to apply 187 to 300 L/ha spray volume at approximately 200-400 kPa nozzle pressure. Commercially available products of cyhalofop-butyl (Clincher 180EC, Clincher 200EC, and Clincher SF (285 gr ai/L EC)) were mixed in water at appropriate formulated product rates to achieve the desired rates based on a unit area of application (hectare) to achieve the desired rates as shown. Treatments were rate at 19 to 58 days after application (DAA) as compared to the untreated control plants. Visual weed control was scored on a scale of 0 to 100 percent where 0 corresponds to no injury and 100 corresponds to complete kill. […]
# [2] = tested on: CYPRO; experiment: Example VI in-water applied ternary mixtures, greenhouse, transplanted paddy rice weeds; assay type: in vivo, Cyperus rotundus L.
# Protocol: Weed seeds or nutlets of the desired test plant species were planted in puddled soil (mud) prepared by mixing a shredded, non-sterilized mineral soil (50.5 percent silt, 25.5 percent clay, and 24 percent sand, with a pH of about 7.6 and an organic matter content of about 2.9 percent) and water at a 1:1 volumetric ratio. The prepared mud was dispensed in 365 mL aliquots into 16-ounce (oz.) non-perforated plastic pots with a surface area of 86.59 square centimeters (cm^2) leaving a headspace of 3 centimeters (cm) in each pot. Mud was allowed to dry overnight prior to planting or transplanting. Rice seeds were planted in Sun Gro MetroMix® 306 planting mixture, which typically has a pH of 6.0 to 6.8 and an organic matter content of about 30 percent, in plastic plug trays. Seedlings at the second or third leaf stage of growth were transplanted into 860 mL of mud contained in 32-oz. non-perforated plastic pots with a surface area of 86.59 cm^2 4 days prior to herbicide application. The paddy was created by filling the headspace of the pots with 2.5 to 3 cm of water. When required to ensure good germination and healthy plants, a fungicide treatment and/or other chemical or physical treatment was applied. The plants were grown for 4-22 days in a greenhouse with an approximate 14 hr. photoperiod which was maintained at about 29° C. during the day and 26° C. during the night. Nutrients were added as Osmocote® (19:6:12, N:P:K+minor nutrients) at 2 g per 16-oz. pot and 4 g per 32-oz. pot. Water was added on a regular basis to maintain the paddy flood, and supplemental lighting was provided with overhead metal halide 1000-Watt lamps as necessary. The plants were employed for testing when they reached the first through fourth true leaf stage.
# Treatments consisted of the benzyl ester of 4-amino-3-chloro-5-fluoro-6-(4-chloro-2-fluoro-3-methoxy-phenyl)pyridine-2-carboxylic acid (Compound A), formulated as an SC (suspension concentrate), an ACCase inhibitor herbicide, and a third herbicidal component, each applied alone and in ternary combination. Forms of compound A were applied on an acid equivalent basis.
# The ACCase inhibitor component was applied on an active ingredient basis and included cyhalofop-R-butyl formulated as Clincher® G and metamifop formulated as Metamifop EC. Other herbicidal components were applied on an active ingredient or acid equivalent basis depending on the compound and included penoxsulam formulated as Grasp® SC, bentazon sodium formulated as Basagran®, triclopyr […] (TEA) salt formulated as Grandstand® R, benzobicyclon formulated as Benzobicyclon, benfuresate formulated as Full Slot® WG, pyraclonil formulated as Pyraclon® Flowable, mefenacet (technical grade material), and pretilachlor (technical grade material).
# Treatment requirements for each compound or herbicidal component were calculated based upon the rates being tested, the concentration of active ingredient or acid equivalent in the formulation, an application volume of 1 mL per component per pot, and an application area of 86.59 cm^2 per pot.
# For formulated compounds, a measured amount was placed in an individual 100 or 200 mL glass vial and was dissolved in a volume of 1.25% (v/v) Agri-Dex® crop oil concentrate to obtain application solutions.
# For technical grade compounds, a weighed amount was placed in an individual 100 to 200 mL glass vial and was dissolved in a volume of acetone to obtain concentrated stock solutions.
# Applications were made by injecting with a pipetter appropriate amounts of the application solutions, into the aqueous layer of the paddy. Control plants were treated in the same manner with the solvent blank. Applications were made so that all treated plant material received the same concentrations of acetone and crop oil concentrate.
# The treated plants and control plants were placed in a greenhouse as described above and water was added as needed to maintain a paddy flood. […]
SMILES,Visual Weed Control (%) - 55-58 DAA SCPMU Obs ([1]; 24 gae/ha),Visual Weed Control (%) - 21 DAA CYPRO Obs ([2]; 2.19 gae/ha),Visual Weed Control (%) - 24 DAA CYPRO Obs ([2]; 4 gae/ha),Visual Weed Control (%) - 24 DAA CYPRO Obs ([2]; 8 gae/ha),Visual Weed Control (%) - 24 DAA CYPRO Obs ([2]; 16 gae/ha),"Visual Weed Control (%) - 21 DAA CYPRO Obs ([2]; Table 69, 4 gae/ha, 21 DAA)","Visual Weed Control (%) - 21 DAA CYPRO Obs ([2]; Table 69, 8 gae/ha, 21 DAA)","Visual Weed Control (%) - 21 DAA CYPRO Obs ([2]; Table 70, 4 gae/ha, 21 DAA)","Visual Weed Control (%) - 21 DAA CYPRO Obs ([2]; Table 70, 8 gae/ha, 21 DAA)",Visual Weed Control (%) - 55-58 DAA SCPMU Obs ([1]; 300 gai/ha),Visual Weed Control (%) - 21 DAA CYPRO Obs ([2]; 22.5 gai/ha),Visual Weed Control (%) - 21 DAA CYPRO Obs ([2]; 45 gai/ha),Visual Weed Control (%) - 24 DAA CYPRO Obs ([2]; 90 gai/ha),Visual Weed Control (%) - 24 DAA CYPRO Obs ([2]; 180 gai/ha),"Visual Weed Control (%) - 21 DAA CYPRO Obs ([2]; Table 69, 90 gai/ha, 21 DAA)","Visual Weed Control (%) - 21 DAA CYPRO Obs ([2]; Table 69, 180 gai/ha, 21 DAA)","Visual Weed Control (%) - 21 DAA CYPRO Obs ([2]; Table 70, 180 gai/ha, 21 DAA)"
"COc1c(Cl)ccc(-c2nc(C(=O)OCc3ccccc3)c(Cl)c(N)c2F)c1F [Compound A Benzyl Ester, benzyl ester of 4-amino-3-chloro-5-fluoro-6-(4-chloro-2-fluoro-3-methoxy-phenyl)pyridine-2-carboxylic acid]",27%,0%,40%,60%,85%,3%,33%,3%,33%,,,,,,,,
"CCCCOC(=O)[C@@H](C)Oc1ccc(Oc2ccc(C#N)cc2F)cc1 [Cyhalofop-butyl, butyl(2R)-2-[4-(4-cyano-2-fluorophenoxy)phenoxy]propanoate, reference compound]",,,,,,,,,,6%,0%,0%,0%,0%,0%,0%,0%
